# Species: Rattus norvegicus
# Assay: DrugMatrix - Regimen: Daily Repeat
# Assay type: toxicity, organism-based, Sprague-Dawley
# Parameters: regimen Daily Repeat, gender Male, age 6-8 weeks
# Conditions: in vivo, po, route oral GAVAGE, […]; for ABSOLUTE BASOPHIL / ABSOLUTE EOSINOPHIL / ABSOLUTE LYMPHOCYTE / ABSOLUTE MONOCYTE / ABSOLUTE SEGMENTED NEUTROPHIL / BASOPHIL / EOSINOPHIL / ERYTHROCYTE COUNT / HEMATOCRIT / HEMOGLOBIN / LEUKOCYTE COUNT / LYMPHOCYTE / MEAN CORPUSCULAR HEMOGLOBIN / MEAN CORPUSCULAR HEMOGLOBIN CONCENTRATION / MEAN CORPUSCULAR VOLUME / MONOCYTE / NEUTROPHIL / NUCLEATED RED BLOOD CELLS / PLATELET COUNT: tissue Blood; for ALANINE AMINOTRANSFERASE / ALKALINE PHOSPHATASE / ASPARTATE AMINOTRANSFERASE / BLOOD UREA NITROGEN / CARBON DIOXIDE / CHLORIDE / CHOLESTEROL / CREATINE PHOSPHOKINASE / CREATININE / GLUCOSE / LACTATE DEHYDROGENASE / LIPASE / PHOSPHORUS / POTASSIUM / SODIUM / TOTAL BILIRUBIN / TOTAL PROTEIN / URIC ACID: tissue Plasma
# [1] = 20.4 mg/kg, 72 h, dose level High, time 3 day
# [2] = 20.4 mg/kg, 120 h, dose level High, time 5 day
# [3] = 72 h, dose 2.7 mg/Kg, dose level Low, time 3 day
# [4] = 120 h, dose 2.7 mg/Kg, dose level Low, time 5 day
smiles,measurement,setting,value
CC(C(=O)O)c1cccc(C(=O)c2ccccc2)c1 (stereo not drawn) [KETOPROFEN],ABSOLUTE BASOPHIL,[1],0 CELLS/uL
same,ABSOLUTE EOSINOPHIL,[1],0 CELLS/uL
same,ABSOLUTE LYMPHOCYTE,[1],7267.67 CELLS/uL
same,ABSOLUTE MONOCYTE,[1],314.33 CELLS/uL
same,ABSOLUTE SEGMENTED NEUTROPHIL,[1],1618 CELLS/uL
same,BASOPHIL,[1],0%
same,EOSINOPHIL,[1],0%
same,ERYTHROCYTE COUNT,[1],4.75 x10E6/uL
same,HEMATOCRIT,[1],28.6%
same,HEMOGLOBIN,[1],11.67 G/DL
same,LEUKOCYTE COUNT,[1],9.2 x10E3/uL
same,LYMPHOCYTE,[1],76.67%
same,MEAN CORPUSCULAR HEMOGLOBIN,[1],24.67 pg
same,MEAN CORPUSCULAR HEMOGLOBIN CONCENTRATION,[1],40.8 G/DL
same,MEAN CORPUSCULAR VOLUME,[1],60.43 fL
same,MONOCYTE,[1],3.33%
same,NEUTROPHIL,[1],20%
same,NUCLEATED RED BLOOD CELLS,[1],0.67 /100WBC
same,PLATELET COUNT,[1],1067.67 x10E3/uL
same,ALANINE AMINOTRANSFERASE,[1],31.67 u/L
same,ALKALINE PHOSPHATASE,[1],297.33 u/L
same,ASPARTATE AMINOTRANSFERASE,[1],95 u/L
same,BLOOD UREA NITROGEN,[1],15.33 mg/dL
same,CARBON DIOXIDE,[1],25.67 mmol/L
same,CHLORIDE,[1],101.67 MEQ/L
same,CHOLESTEROL,[1],70.33 mg/dL
same,CREATINE PHOSPHOKINASE,[1],362.33 u/L
same,CREATININE,[1],0.15 mg/dL
same,GLUCOSE,[1],138.67 mg/dL
same,LACTATE DEHYDROGENASE,[1],114 u/L
same,LIPASE,[1],9.67 u/L
same,PHOSPHORUS,[1],13.07 mg/dL
same,POTASSIUM,[1],6.63 MEQ/L
same,SODIUM,[1],141.23 MEQ/L
same,TOTAL BILIRUBIN,[1],0.1 mg/dL
same,TOTAL PROTEIN,[1],4.57 G/DL
same,URIC ACID,[1],2.1 mg/dL
same,ABSOLUTE BASOPHIL,[2],0 CELLS/uL
same,ABSOLUTE EOSINOPHIL,[2],0 CELLS/uL
same,ABSOLUTE LYMPHOCYTE,[2],10025.5 CELLS/uL
same,ABSOLUTE MONOCYTE,[2],600.5 CELLS/uL
same,ABSOLUTE SEGMENTED NEUTROPHIL,[2],1824 CELLS/uL
same,BASOPHIL,[2],0%
same,EOSINOPHIL,[2],0%
same,ERYTHROCYTE COUNT,[2],4.91 x10E6/uL
same,HEMATOCRIT,[2],29.7%
same,HEMOGLOBIN,[2],12.2 G/DL
same,LEUKOCYTE COUNT,[2],12.45 x10E3/uL
same,LYMPHOCYTE,[2],76%
same,MEAN CORPUSCULAR HEMOGLOBIN,[2],25 pg
same,MEAN CORPUSCULAR HEMOGLOBIN CONCENTRATION,[2],41.05 G/DL
same,MEAN CORPUSCULAR VOLUME,[2],60.85 fL
same,MONOCYTE,[2],4.5%
same,NEUTROPHIL,[2],19.5%
same,NUCLEATED RED BLOOD CELLS,[2],1 /100WBC
same,PLATELET COUNT,[2],1944 x10E3/uL
same,ALANINE AMINOTRANSFERASE,[2],58 u/L
same,ALKALINE PHOSPHATASE,[2],430 u/L
same,ASPARTATE AMINOTRANSFERASE,[2],128 u/L
same,BLOOD UREA NITROGEN,[2],17 mg/dL
same,CARBON DIOXIDE,[2],21 mmol/L
same,CHLORIDE,[2],99.5 MEQ/L
same,CHOLESTEROL,[2],61.5 mg/dL
same,CREATINE PHOSPHOKINASE,[2],682 u/L
same,CREATININE,[2],0.13 mg/dL
same,GLUCOSE,[2],127.5 mg/dL
same,LACTATE DEHYDROGENASE,[2],391.5 u/L
same,LIPASE,[2],20.5 u/L
same,PHOSPHORUS,[2],14.15 mg/dL
same,POTASSIUM,[2],8.29 MEQ/L
same,SODIUM,[2],138.9 MEQ/L
same,TOTAL BILIRUBIN,[2],0.15 mg/dL
same,TOTAL PROTEIN,[2],5.05 G/DL
same,URIC ACID,[2],3.2 mg/dL
same,ABSOLUTE BASOPHIL,[3],0 CELLS/uL
same,ABSOLUTE EOSINOPHIL,[3],0 CELLS/uL
same,ABSOLUTE LYMPHOCYTE,[3],15950 CELLS/uL
same,ABSOLUTE MONOCYTE,[3],68.67 CELLS/uL
same,ABSOLUTE SEGMENTED NEUTROPHIL,[3],1814.67 CELLS/uL
same,BASOPHIL,[3],0%
same,EOSINOPHIL,[3],0%
same,ERYTHROCYTE COUNT,[3],5.46 x10E6/uL
same,HEMATOCRIT,[3],34.7%
same,HEMOGLOBIN,[3],13.87 G/DL
same,LEUKOCYTE COUNT,[3],17.83 x10E3/uL
same,LYMPHOCYTE,[3],89.67%
same,MEAN CORPUSCULAR HEMOGLOBIN,[3],25.4 pg
same,MEAN CORPUSCULAR HEMOGLOBIN CONCENTRATION,[3],39.97 G/DL
same,MEAN CORPUSCULAR VOLUME,[3],63.5 fL
same,MONOCYTE,[3],0.33%
same,NEUTROPHIL,[3],10%
same,NUCLEATED RED BLOOD CELLS,[3],0.67 /100WBC
same,PLATELET COUNT,[3],1051 x10E3/uL
same,ALANINE AMINOTRANSFERASE,[3],83.33 u/L
same,ALKALINE PHOSPHATASE,[3],375.67 u/L
same,ASPARTATE AMINOTRANSFERASE,[3],100.33 u/L
same,BLOOD UREA NITROGEN,[3],10.33 mg/dL
same,CARBON DIOXIDE,[3],28.67 mmol/L
same,CHLORIDE,[3],99.67 MEQ/L
same,CHOLESTEROL,[3],74 mg/dL
same,CREATINE PHOSPHOKINASE,[3],203.67 u/L
same,CREATININE,[3],0.12 mg/dL
same,GLUCOSE,[3],169 mg/dL
same,LACTATE DEHYDROGENASE,[3],131.33 u/L
same,LIPASE,[3],12 u/L
same,PHOSPHORUS,[3],11.9 mg/dL
same,POTASSIUM,[3],6.6 MEQ/L
same,SODIUM,[3],141.63 MEQ/L
same,TOTAL BILIRUBIN,[3],0.2 mg/dL
same,TOTAL PROTEIN,[3],5.5 G/DL
same,URIC ACID,[3],1.3 mg/dL
same,ABSOLUTE BASOPHIL,[4],0 CELLS/uL
same,ABSOLUTE EOSINOPHIL,[4],0 CELLS/uL
same,ABSOLUTE LYMPHOCYTE,[4],13468.33 CELLS/uL
same,ABSOLUTE MONOCYTE,[4],227.67 CELLS/uL
same,ABSOLUTE SEGMENTED NEUTROPHIL,[4],2570.67 CELLS/uL
same,BASOPHIL,[4],0%
same,EOSINOPHIL,[4],0%
same,ERYTHROCYTE COUNT,[4],5.73 x10E6/uL
same,HEMATOCRIT,[4],35.13%
same,HEMOGLOBIN,[4],14.03 G/DL
same,LEUKOCYTE COUNT,[4],16.27 x10E3/uL
same,LYMPHOCYTE,[4],83%
same,MEAN CORPUSCULAR HEMOGLOBIN,[4],24.5 pg
same,MEAN CORPUSCULAR HEMOGLOBIN CONCENTRATION,[4],39.97 G/DL
same,MEAN CORPUSCULAR VOLUME,[4],61.33 fL
same,MONOCYTE,[4],1.33%
same,NEUTROPHIL,[4],15.67%
same,NUCLEATED RED BLOOD CELLS,[4],0 /100WBC
same,PLATELET COUNT,[4],1235.67 x10E3/uL
same,ALANINE AMINOTRANSFERASE,[4],64.67 u/L
same,ALKALINE PHOSPHATASE,[4],363.67 u/L
same,ASPARTATE AMINOTRANSFERASE,[4],74 u/L
same,BLOOD UREA NITROGEN,[4],13.67 mg/dL
same,CARBON DIOXIDE,[4],31.67 mmol/L
same,CHLORIDE,[4],100.67 MEQ/L
same,CHOLESTEROL,[4],64.33 mg/dL
same,CREATINE PHOSPHOKINASE,[4],125.67 u/L
same,CREATININE,[4],0.17 mg/dL
same,GLUCOSE,[4],146.67 mg/dL
same,LACTATE DEHYDROGENASE,[4],78 u/L
same,LIPASE,[4],11.67 u/L
same,PHOSPHORUS,[4],9.8 mg/dL
same,POTASSIUM,[4],6.54 MEQ/L
same,SODIUM,[4],143.77 MEQ/L
same,TOTAL BILIRUBIN,[4],0.13 mg/dL
same,TOTAL PROTEIN,[4],5.8 G/DL
same,URIC ACID,[4],1.17 mg/dL
